Row | SMILES | melting point
1 | COc1cc(CCNc2ncnc3cnn(C)c23)ccc1Oc1ccnc(C(F)(F)F)c1 [I-10, N-[2-[3-methoxy-4-[[2-(trifluoromethyl)-4-pyridyl]oxy]phenyl]ethyl]-1-methyl-pyrazolo[4,3-d]pyrimidin-7-amine] | 178 °C
2 | CC1OC(=O)c2ncnc(NCCc3ccc(Oc4ccnc(C(F)(F)F)c4)cc3F)c21 (centres unmarked) | 159 °C
